Assay results published in PMC10385579, “Design, Synthesis, and Biological Evaluation of Indole-2-carboxamides as Potential Multi-Target Antiproliferative Agents” (Pharmaceuticals, 2023).

Tests used:
[1] = test system: breast cancer (MCF-7) cell line; assay: Antiproliferative assay, MCF-7; assay type: cell-based; settings: Homo sapiens, MCF7; read-out: Antiproliferative Activity IC50 ± SEM, MCF-7
Procedure: 4.2.1.2. Assay for antiproliferative effect
To explore the antiproliferative potential of compounds propidium iodide fluorescence assay was performed using different cell lines such as Panc-1 (pancreas cancer cell line), MCF-7 (breast cancer cell line), HT-29 (colon cancer cell line) and A-549 (epithelial cancer cell line), respectively.
To calculate the total nuclear DNA, a fluorescent dye (propidium iodide, PI) is used which can attach to the DNA, thus offering a quick and precise technique. PI cannot pass through the cell membrane and its signal intensity can be considered as directly proportional to quantity of cellular
DNA. Cells whose cell membranes are damaged or have changed permeability are counted as dead ones. The assay was performed by seeding the cells of different cell lines at a density of 3000-7500 cells/well (in200μl medium) in culture plates followed by incubation for 24h at 37 °C in humidified 5%CO2/95% air atmospheric conditions. The medium was removed; the compounds were added to the plates at 10 μM concentrations (in 0.1% DMSO) in triplicates, followed by incubation for 48h. DMSO (0.1%) was used as control. After incubation, medium was removed followed by the addition of PI (25 μl, 50μg/mL in water/medium) to each well of the plates. At - 80 °C, the plates were allowed to freeze for 24 h, followed by thawing at 25 °C. A fluorometer (Polar-Star BMG Tech) was used to record the readings at excitation and emission wavelengths of 530 and 620 nm for each well. The percentage cytotoxicity of compounds was calculated using […]
Where ATC= Absorbance of treated cells and AC= Absorbance of control. Erlotinib was used as positive control in the assay.

Bax = Bax level assay in A-549 cells; assay type: cell-based, human; settings: for Bax Conc: control 9; for Bax Fold Change: vs control
Procedure: caspase8, and lysed with Cell Extraction Buffer. This lysate was diluted in Standard Diluent Buffer over the range of the assay and measured for human active caspase-8 content. […]
4.2.7. Bax activation assay
Bring all reagents, except the human Bax-α Standard, to room temperature for at least 30 minutes prior to opening. The human Bax-α Standard solution should not be left at room temperature for more than 10 minutes. All standards, controls and samples should be run in duplicate. Refer to the Assay Layout Sheet to determine the number of wells to be used and put any remaining wells with the desiccant back into the pouch and seal the ziploc. Store unused wells at 4 °C. Pipet 100 μL of Assay Buffer into the S0 (0 pg/mL standard) wells. Pipet 100 μL of Standards #1 through #6 into the appropriate wells. Pipet 100 μL of the Samples into the appropriate wells. Tap the plate gently to mix the contents. Seal the plate and incubate at room temperature on a plate shaker for 1 hour at ~500 rpm. Empty the contents of the wells and wash by adding 400 μL of wash solution to every well. Repeat the wash 4 more times for a total of 5 washes. After the final wash, empty or aspirate the wells and firmly tap the plate on a lint free paper towel to remove any remaining wash buffer.
Pipet 100 μL of yellow Antibody into each well, except the Blank. Seal the plate and incubate at room temperature on a plate shaker for 1 hour at ~500 rpm. Empty the contents of the wells and wash by adding 400 μL of wash solution to every well. Repeat the wash 4 more times for a total of 5 washes. After the final wash, empty or aspirate the wells and firmly tap the plate on a lint free paper towel to remove any remaining wash buffer. Add 100 μL of blue Conjugate to each well, except the Blank. Seal the plate and incubate at room temperature on a plate shaker for 30 minutes […]
Pipet 100 μL of Substrate Solution into each well. Incubate for 30 minutes at room temperature on a plate shaker at ~500 rpm. Pipet 100 μL Stop Sol ution to each well. Blank the plate reader against the Blank wells, read the optical density at 450 nm. Calculate the average net Optical Density (OD) bound for each standard and sample by subtracting the average Blank OD from the average OD for each standard and sample. Using linear graph paper, plot the Average Net OD for each standard versus Bax concentration in each standard. Approximate a straight line through the points.
The concentration of Bax in the unknowns can be determined by interpolation. […]

[2] = Cell viability assay (MTT) on MCF-10A; assay type: cell-based; settings: human, MCF-10A mammary gland epithelial cells, MCF-10A cells, four days
Procedure: To assess the viability of compounds IV and Va–i, the human mammary gland epithelial (MCF-10A) cell line was exploited. Compounds IV and Va–i were cultured for four days on MCF-10A cells before being evaluated for vitality using the MTT assay.
To test the viability of the new compounds, the human mammary gland epithelial (MCF-10A) cell line was used. Compounds IV and Va–i were incubated on MCF-10A cells for four days before being tested for viability using the MTT assay. See Supplementary Materials.
4.2. Biological evaluation
4.2.1. Cytotoxic activity using MTT Assay and evaluation of IC50
MTT assay was performed to investigate the effect of the synthesized compounds on mammary epithelial cells (MCF-10A). The cells were propagated in medium consisting of Ham's F-12 medium/ Dulbecco's modified Eagle's medium (DMEM) (1:1) supplemented with 10% foetal calf serum, 2 mM glutamine, insulin (10 μg/mL), hydrocortisone (500 ng/mL) and epidermal growth factor (20 ng/mL). Trypsin ethylenediamine tetra acetic acid (EDTA) was used to passage the cells after every 2-3 days. 96-well flat-bottomed cell culture plates were used to seed the cells at a density of 10^4 cells mL-1. The medium was aspirated from all the wells of culture plates after 24 h followed by the addition of synthesized compounds (in 200 μL medium to yield a final concentration of 0.1% (v/v) dimethyl sulfoxide) into individual wells of the plates. Four wells were designated to a single compound. The plates were allowed to incubate at 37°C for 96 h. Afterwards, the medium was aspirated and 3-[4,5-dimethylthiazol-2-yl]-2,5-diphenyltetrazolium bromide (MTT) (0.4 mg/mL) in medium was added to each well and subsequently incubated for 3 h. The medium was aspirated and 150 μL dimethyl sulfoxide (DMSO) was added to each well. The plates were vortexed followed by the measurement of absorbance at 540 nm on a microplate reader. The results were presented as inhibition (%) of proliferation in contrast to controls comprising 0.1%

VEGFR-2 = VEGFR-2 (Homo sapiens, UniProt P35968); assay: VEGFR-2 inhibitory assay
VEGFR-2, sequence (P35968 20-1356): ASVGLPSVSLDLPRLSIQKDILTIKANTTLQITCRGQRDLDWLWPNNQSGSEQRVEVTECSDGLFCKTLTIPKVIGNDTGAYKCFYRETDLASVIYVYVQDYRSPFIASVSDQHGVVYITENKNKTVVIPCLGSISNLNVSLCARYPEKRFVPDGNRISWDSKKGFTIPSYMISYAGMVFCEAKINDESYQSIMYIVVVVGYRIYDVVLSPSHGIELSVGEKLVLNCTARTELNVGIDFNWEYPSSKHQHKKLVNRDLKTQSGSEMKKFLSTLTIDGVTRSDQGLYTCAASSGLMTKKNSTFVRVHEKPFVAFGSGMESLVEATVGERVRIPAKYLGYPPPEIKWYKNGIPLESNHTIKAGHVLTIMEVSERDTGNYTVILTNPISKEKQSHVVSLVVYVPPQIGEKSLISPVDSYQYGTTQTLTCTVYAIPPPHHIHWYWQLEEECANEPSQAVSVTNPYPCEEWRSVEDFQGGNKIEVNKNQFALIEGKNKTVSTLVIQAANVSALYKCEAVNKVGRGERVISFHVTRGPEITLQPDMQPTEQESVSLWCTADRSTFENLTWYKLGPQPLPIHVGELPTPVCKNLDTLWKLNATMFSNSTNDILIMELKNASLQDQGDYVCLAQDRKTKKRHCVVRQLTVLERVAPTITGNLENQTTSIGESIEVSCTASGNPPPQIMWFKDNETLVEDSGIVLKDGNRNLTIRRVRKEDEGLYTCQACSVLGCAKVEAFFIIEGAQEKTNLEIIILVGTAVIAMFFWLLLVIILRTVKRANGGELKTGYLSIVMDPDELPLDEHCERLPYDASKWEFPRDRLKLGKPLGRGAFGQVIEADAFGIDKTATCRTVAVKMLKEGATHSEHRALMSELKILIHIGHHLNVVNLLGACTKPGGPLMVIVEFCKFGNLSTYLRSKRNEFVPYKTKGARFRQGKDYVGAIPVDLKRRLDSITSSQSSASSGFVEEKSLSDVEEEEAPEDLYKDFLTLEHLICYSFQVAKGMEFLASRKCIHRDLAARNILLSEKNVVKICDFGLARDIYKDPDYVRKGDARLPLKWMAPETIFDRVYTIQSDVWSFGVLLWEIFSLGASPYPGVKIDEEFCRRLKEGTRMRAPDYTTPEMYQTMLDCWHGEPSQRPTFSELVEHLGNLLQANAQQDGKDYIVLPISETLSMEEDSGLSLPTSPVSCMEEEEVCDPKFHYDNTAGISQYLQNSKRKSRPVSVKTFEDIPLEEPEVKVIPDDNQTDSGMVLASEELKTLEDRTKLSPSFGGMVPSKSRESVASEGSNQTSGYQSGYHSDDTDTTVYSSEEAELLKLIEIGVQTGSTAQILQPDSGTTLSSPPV
Procedure: Prepare all the solutions using autoclaved, deionized water and analytical grade reagents.
and store all the reagents at room temperature (unless indicated otherwise).
solution, add 5 mL ultra-pure water; 1×Kinase Assay Buffer: add 25 mL HEPES solution (1 M),
water, adjust pH to 7.5 and constant volume to 500 mL using ultrapure water; 4×Stop solution (40
mM): Mix 0.8 mL of the foregoing EDTA solution, 1 mL 10×Detection Buffer and 8.2 mL ultra-
pure water; 1×Detection Buffer: Mix 1 mL 10×Detection Buffer with 9 mL water; 4×VEGFR
μM) was added to 624 μL 1×Kinase Assay Buffer and mixed; 4×ULight™-labeled JAK1
concentration 5 μM) was added to 576 μL 1×Kinase Assay Buffer and mixed; 4×ATP Solution
2×substrate/ATP Mix: 560 μL foregoing 4×ULight™-labeled JAK1 and 560 μL 4×ATP solution
and mixed (prepared before use). The assays used an ULight-labeled peptide substrate and a
Europium-W1024-labeled antiphosphotyrosine antibody. The VEGFR-2 was purchased from
Carna Biosciences, Inc. (New York, USA). The 384-well plates were obtained from PerkinElmer.
5 μL 2×VEGFR-2 kinase solution (0.5 nM)
was added to 384-well plates homogeneous mixing and pre-reaction at room temperature for 30 min. Next, 2.5 μL 4×Ultra ULightTM-JAK-1(Tyr1023) Peptide (200 nM)/ATP (40 μM) was added to the corresponding wells of a 384-well plate. Negative control: 2.5 μL/well 4×substrate/ATP mixture and 7.5 μL 1×kinase assay buffer in 384-well plate well. Positive control:
μL/well 2×VEGFR-2 kinase solution was added to the 384-well plate, The final concentration of DMSO in the mixing system was 4%. After incubation at room temperature and dark for 60 min, 5 μL 4×stop solution was added to corresponding wells to react for 5 min and then 5 μL 4×detection mix was added to the corresponding wells of a 384-well plate. The mixture was centrifugally mixed and stayed for 60 min at room temperature for color development. The plate was read using a Envision plate reader. The inhibition rate (%) = (positive well reading-compound well reading)/(positive well reading-negative well reading)×100. The corresponding IC50 values were calculated using GraphPad Prism 5.0.

SMILES	IC50 [1] [nM]	Bax Conc (Bax) [pg/mL]	Bax Fold Change (Bax)	melting point [°C]	viability at 96 h, 50 µM [2] [%]	IC50 (VEGFR-2) [nM]
O=C(NCC(c1ccccc1)c1c(-c2ccccc2)[nH]c2ccccc12)c1cc2cc(Cl)ccc2[nH]1 (stereo not drawn) [Compound Va, 5-Chloro-N-(2-phenyl-2-(2-phenyl-1H-indol-3-yl)ethyl)-1H-indole-2-carboxamide]	28 ± 2	410	45	112 to 114	91	2.15 ± 0.2
CO/C=C/c1c(C(=O)NCC(c2ccccc2)c2c(-c3ccccc3)[nH]c3ccccc23)[nH]c2ccc(Cl)cc12 (stereo not drawn) [Compound Vg, (E)-5-Chloro-3-(2-methoxyvinyl)-N-(2-phenyl-2-(2-phenyl-1H-indol-3-yl)ethyl)-1H-indole-2-carboxamide]	33 ± 3	320	35	140 to 142	89	1.6 ± 0.1
